How the values were obtained:
[1] = system: IMR-32 neuroblastoma cells; experiment: neuroprotection against 6-OHDA-induced LDH release; assay type: cell-based, human; conditions: IMR-32, compound 50 µM, 1 h pretreatment, 200 µM 6-OHDA, 24 h
Description: (§1) All cell culture protocols and assay conditions were applied as we reported previously. SH-SY5Y (ATCC® CRL-2266™) cell line was purchased from ATCC (Manassas, VA, USA). IMR-32 (ATCC® CCL-127™) cell line was kindly provided by the Department of Oncogenomics, Academisch Medisch Centrum, Amsterdam, Holland. Before each test SH-SY5Y or IMR-32 cells were seeded in 96-well plates with transparent bottom at a concentration of 2.5 × 10^4 cells/well in 100 μL of respective cell culture medium and cultured for 24 h to reach 70% confluence. • Cell Viability
(§2) CytoTox-ONE™ Homogeneous Membrane Integrity Assay, which based on the LDH release, was purchased from Promega (Madison, WI, USA). SH-SY5Y or IMR-32 cells were seeded in 96-well white plates with transparent bottom. For neuroprotective studies, the cells were preincubated first for 1 h with compound 1, 8 or reference antioxidants AA, TX (all at the concentration of 50 μM) and next the neurotoxin 6-OHDA (Sigma-Aldrich, Inc., St. Louis, MO, USA) was added at final concentration of 50 μM (SH-SY5Y assay) or 200 µM (IMR-32 assay). After 24 h of incubation, the CytoTox-ONE™ was added to each well and the cells were incubated next for 10 min at room temperature. The fluorescence was measured using a microplate reader EnSpire (PerkinElmer, Waltham, MA, USA) with an excitation wavelength of 560 nm and an emission wavelength of 590 nm. All measurements were performed in triplicate and results are shown as mean ± SD. The similar studies were also performed with SH-SY5Y cells injured by 100 μM of 6-OHDA (Figure S1, Supporting Materials). • ROS Assay

[2] = system: SH-SY5Y neuroblastoma cells; experiment: neuroprotection against 6-OHDA-induced LDH release; assay type: cell-based, human; conditions: compound 50 µM
Description: as §1, §2

[3] = biological target: T1, Human MAO-B (Homo sapiens, UniProt P27338); experiment: MAO-B inhibition, Amplex Red Monoamine Oxidase kit; assay type: biochemical
T1 construct: purchased Merck KGaA (Darmstadt, Germany)
T1 sequence (P27338 1-520): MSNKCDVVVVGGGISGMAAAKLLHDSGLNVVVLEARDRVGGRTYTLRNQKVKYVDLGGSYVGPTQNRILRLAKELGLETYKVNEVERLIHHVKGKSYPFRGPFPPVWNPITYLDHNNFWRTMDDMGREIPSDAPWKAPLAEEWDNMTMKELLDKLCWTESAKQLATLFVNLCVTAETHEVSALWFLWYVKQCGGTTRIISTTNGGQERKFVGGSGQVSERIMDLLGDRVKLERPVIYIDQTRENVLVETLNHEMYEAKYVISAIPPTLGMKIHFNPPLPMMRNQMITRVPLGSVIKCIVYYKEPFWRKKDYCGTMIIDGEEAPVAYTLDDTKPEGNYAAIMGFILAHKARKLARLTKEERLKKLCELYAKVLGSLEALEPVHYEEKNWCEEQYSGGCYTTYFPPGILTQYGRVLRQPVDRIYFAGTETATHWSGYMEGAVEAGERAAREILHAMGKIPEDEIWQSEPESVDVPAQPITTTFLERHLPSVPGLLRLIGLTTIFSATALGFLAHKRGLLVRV
Description: Human MAO-B was purchased from Merck KGaA (Darmstadt, Germany). The activity of compound 1 and 8 was measured in the presence of p-tyramine (200 μM). […] Firstly, inhibitors’ activity was measured in a concentration of 1 μM. […] For compounds that inhibited the enzyme by more than 50% further studies were conducted to obtain IC50 from concentration–response curves. All calculations were made in Microsoft Excel and GraphPadPrism software. All experiments were performed in duplicate and data are expressed as mean ± SEM.

[4] = system: heat hyperalgesia in diabetic mice; experiment: diabetic (STZ) neuropathic pain model, hot plate test; assay type: in vivo; conditions: 30 mg/kg i.p.
Description: (§3) Behavioral experiments were carried out in male Albino Swiss (CD-1) mice weighing 18–22 g. The mice were kept in cages, in groups of 10 animals. They had free access to food and water before experiments, and were maintained at room temperature 22–24 °C, under 12:12 (light/dark) cycle. For the assays the animals were selected randomly. After the experiments the animals were euthanized by cervical dislocation. Experimental procedures for in vivo tests were approved by the Local Ethics Committee of the Jagiellonian University in Krakow (Approval No. 33/2018; release date: 1.02.2018) and the treatment of animals was performed in full accordance with ethical standards laid down in respective Polish and EU regulations (Directive 2010/63/EU).
Oxaliplatin was purchased from Activate Scientific GmbH (Prien, Germany). PTZ and STZ were provided by Merck KGaA (Darmstadt, Germany). […]
To induce type I diabetes and diabetic neuropathic pain, mice were administered STZ, an alkylating antitumor drug that destroys insulin-secreting islet cells. […] Blood glucose levels were measured 1 day before (referred to as ‘day 0′) and repeatedly 1, 2 and 3 weeks after STZ injection using a blood glucose monitoring system (AccuChek Active, Roche, France). […]
The effect of 1 on heat hyperalgesia was assessed using the hot plate test. […]

[5] = system: tactile allodynia in oxaliplatin-treated mice; experiment: oxaliplatin-induced neuropathic pain model, von Frey test; assay type: in vivo; conditions: 10 and 30 mg/kg i.p., early and late phase
Description: as §3
Oxaliplatin was purchased from Activate Scientific GmbH (Prien, Germany). PTZ and STZ were provided by Merck KGaA (Darmstadt, Germany). For the in vivo tests, the compound 1 was suspended in 1% Tween 80 solution (Polskie Odczynniki Chemiczne, Gliwice, Poland), then being administered intraperitoneally 1 h before tests. For the evaluation of anticonvulsant properties of the test compound, a fixed dose of 100 mg/kg, was used. Since many AEDs at lower doses are used as analgesic drugs, for pain tests the doses 10 and 30 mg/kg were selected. […]

NC(Cc1cc(-c2cc(O)ccc2O)c(Cl)c([N+](=O)[O-])c1)C(=O)O (centres unmarked) [Compound 1]
6-OHDA-induced release of LDH (neuroprotection) [1]: statistically significant decrease
6-OHDA-induced release of LDH (neuroprotection) ([2]; 100 µM 6-OHDA): neuroprotective effect was not observed
6-OHDA-induced release of LDH (neuroprotection) ([2]; 1 h pretreatment, 50 µM 6-OHDA, 24 h): statistically significant decrease
maximum MAO-B inhibition attained ([3]; dose-dependent curve): 52%
IC50 ([3]; p-tyramine 200 μM): 278 ± 29 nM
inhibition at 1 µM ([3]; read-out: MAO-B inhibition, screening): > 50%
antihyperalgesic activity, hot plate test (latency to pain reaction) [4]: antihyperalgesic activity was not observed
effect on tactile allodynia, von Frey test [5]: not effective

— article PMC8840081, “Phenylalanine-Based AMPA Receptor Antagonist as the Anticonvulsant Agent with Neuroprotective Activity—In Vitro and In Vivo Studies” (Molecules, 2022)
